For series [1] the following is noted: from a solution of silicic acid; cited from earlier work.
Series [2] can be described thus: Circular dichroism of peptide solutions. The settings on record: for CD spectrum profile: 0.8 mM in 50 mM phosphate buffer pH 7, after 24 h incubation. It counts as physicochemical. On the procedure: CD spectra were recorded on peptide solutions at 0.8 mM (by weight) in 50 mM phosphate buffer at pH 7. Solutions had been incubated at room temperature for a minimum of 24 h. Scans were performed in 1 nm increments with 3 s scans at 20° C. and averaged over 5 scans.
The CD spectrum of peptide 1 in the A range of 200-250 nm was fitted by use of the novel Beta Structure Selection algorithm with normalized root mean square deviation of 0.018 (A. Micsonai, F. Wien, L. Kernya, Y.-H. Lee, Y. Goto, M. Réfrégiers and J. Kardos, Proc. Natl. Acad. Sci., 2015, 112, E3095-E3103). The algorithm predicts that the secondary or tertiary structure of the peptide consists of approximately 56% random coils, 27% beta-sheets and 17% beta-turns.
In general terms: Circular dichroism is the unequal absorption of left and right circularly polarised light.

Series [3] can be described thus: TEM imaging of peptides and peptide-silica mixtures. It counts as physicochemical. The conditions noted are these: phosphate buffer, absence of silicic acid. As to the method: Peptide and peptide-silica mixtures suspended in 50 mM phosphate buffer were applied onto carbon coated copper grid and subsequently viewed with Philips CM200 electron microscope operated at 200 kV.

The nature of series [4]: Silica precipitation (mineralisation) by peptides. The conditions noted are these: silicic acid 25 mM, peptide 0.5 mg/mL, 50 mM phosphate buffer pH 7, RT. On the procedure: The individual members of the peptide library were subjected to silica mineralisation conditions analogous to those used for the R5 peptide (C. C. Lechner and C. F. W. Becker, Chem. Sci., 2012, 3, 3500). Phosphate buffered solution at pH 7 was used as a background for the reaction, and peptides were individually incubated in this buffer for 24 h prior to silica precipitation. White precipitate was observable in all samples within the first five minutes following addition of the silicic acid.
Peptides were dissolved to a final concentration of 0.5 mg/mL in 50 mM potassium phosphate buffer at pH 7.0 and left standing at room temperature overnight. Silicic acid was generated by hydrolysis of 250 mM tetramethoxysilane in 1 mM aqueous HCl for 4 min. Silica precipitation reactions were initiated by addition of silicic acid to peptide solutions to a final concentration of 25 mM. Reactions were incubated at RT for 30 min. Silica precipitates were collected by centrifugation (5 min, 16.873×g) and washed twice with water. […] All precipitations were carried out in triplicates.

Setting [5] is: CD 200-250 nm fitted with Beta Structure Selection algorithm.

We go through 10 substances from patent publication US20210106679A1, “Silaffin Silica Particle Adjuvant” (UNIVERSITÄT WIEN, priority 2017, published 2021).

Entries after “also recorded” stand apart in the source; their conditions may differ. *1 amine or outer side, *2 acyl side, *3 side chain or, on linkers, in order; H or OH if unused. Where no end group is shown, it is not given here. [ ]: non-standard residue; d: D form. εLys = N[C@@H](CCCCN[*:1])C(=O)[*:2]

With KRRIL (truncated silaffin peptide I), the “silica precipitation and morphology” value in series [1] is given as “precipitate silica with a random morphology”.

As to “RRIIL(εK)RRIL (RRIIL[εLys]RRIL-OH; also: Lys6 bound via its epsilon amine to the preceding Leu (branched)) [Peptide 9]”, the CD spectrum profile entry in series [2] was “profile was similar to that of peptides 1”.

With RRILKRRIL [Peptide 1], the CD spectrum profile entry in series [2] is listed as “random coil conformation”. For the same substance, in series [2] (setting [5]), the “secondary structure: beta-sheets” value is reported as ~27%, the “secondary structure: beta-turns” value is ~17% and the “secondary structure: random coils” value is “approximately 56%”. In the case of SSKKSGSYSGSKGSKRRIL [Peptide R5], in series [1], the “silica precipitation and morphology” value was “highly efficient in precipitating monodisperse silica particles”. Turning to rriIKRRIL [Peptide 5], the CD spectrum profile result in series [2] is “significantly lower magnitudes than those for peptides 1-4”. On to rriil(εK)RRIL [Peptide 8], for which the CD spectrum profile entry in series [2] was “significantly lower magnitudes than those for peptides 1-4; also recorded: the minimum at 200 nm disappeared and the curve gained a positive character”. The “diameter of peptide rods or narrow sheets (TEM)” value in series [3] is recorded as 80-200 nm. As for rriil(εK)RRLL [Peptide 66], the “capacity to precipitate silica” value in series [4] is “still able to precipitate silica”. With rril(εK)RRIIL [Peptide 7], the CD spectrum profile result in series [2] was “significantly lower magnitudes than those for peptides 1-4”.

Turning to rril(εK)RRIL [Peptide 6], in series [2], the CD spectrum profile entry is “significantly lower magnitudes than those for peptides 1-4”. On to rrilkrril [Peptide 2], for which the CD spectrum profile entry in series [2] is given as “mirror image of the spectrum of peptide 1”.
